Results as given in ChEMBL document CHEMBL1201862, “PubChem BioAssay data set” (2004).
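Test compounds were applied to cells in 96-well plates for 48 hours at 5 doses. The concentration for 50% growth inhibition is given as GI50.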 Activity calls are given as the source filed them. No stated cut-off is given here; in the data, active = GI50 up to about 1.1 µM and inactive = higher. Square brackets hold non-standard residues; d marks the D form. Peptide text beside a SMILES is read from it. pGlu = O=C1CC[CH](C(=O)O)N1

Assays:
Assay in all cases: growth of human tumour cells (NCI), 48 h
[1] = test system: A549
[2] = test system: CCRF-CEM
[3] = test system: EKVX
[4] = test system: HCC 2998
[5] = test system: HCT-116
[6] = test system: HOP-62
[7] = test system: HT-29
[8] = test system: Hs-578T
[9] = test system: MDA-MB-435
[10] = test system: NCI-H460
[11] = test system: NCI/ADR-RES
[12] = test system: OVCAR-8
[13] = test system: RXF 393
[14] = test system: SF-295
[15] = test system: SK-OV-3
[16] = test system: SN12C
[17] = test system: SR
[18] = test system: TK-10
[19] = test system: UO-31

SMILES | GI50 [1] | GI50 [2] | GI50 [3] | GI50 [4] | GI50 [5] | GI50 [6] | GI50 [7] | GI50 [8] | GI50 [9] | GI50 [10] | GI50 [11] | GI50 [12] | GI50 [13] | GI50 [14] | GI50 [15] | GI50 [16] | GI50 [17] | GI50 [18] | GI50 [19]
CN(C)CCCNC(=O)CCNC(=O)c1cc(NC(=O)c2cc(NC(=O)c3cc(NC(=O)c4nc(NC(=O)CCCNC(=O)c5cc(NC(=O)c6cc(NC(=O)c7cc(NC(=O)c8nccn8C)cn7C)cn6C)cn5C)cn4C)cn3C)cn2C)cn1C | > 100 µM (inactive) | > 100 µM (inactive) | > 100 µM (inactive) | > 100 µM (inactive) | > 100 µM (inactive) | > 100 µM (inactive) | > 100 µM (inactive) | > 100 µM (inactive) | > 100 µM (inactive) | > 100 µM (inactive) | > 100 µM (inactive) | > 100 µM (inactive) | > 100 µM (inactive) | > 100 µM (inactive) | > 100 µM (inactive) | > 100 µM (inactive) | > 100 µM (inactive) | > 100 µM (inactive) | > 100 µM (inactive)
CN(C)Cc1cc(C(=O)/C=C/c2cccc(Cl)c2)cc(CN(C)C)c1O | 11.8 µM (inactive) | 2.07 µM (inactive) | 7.03 µM (inactive) | 10.6 µM (inactive) | 3.21 µM (inactive) | 3.65 µM (inactive) | 4.18 µM (inactive) | 11.4 µM (inactive) | 3.48 µM (inactive) | 3.05 µM (inactive) | 18.5 µM (inactive) | 8.55 µM (inactive) | 7.05 µM (inactive) | 13.5 µM (inactive) |  | 3.39 µM (inactive) | 2.28 µM (inactive) | 9.2 µM (inactive) | 5.78 µM (inactive)
COc1cc(OC)c2c(c1)OC(c1ccccc1)CC2=O (stereo not given) [DIMETHYLPINOCEMBRIN] | > 10 µM (inactive) | > 10 µM (inactive) | > 10 µM (inactive) | > 10 µM (inactive) | > 10 µM (inactive) | > 10 µM (inactive) | > 10 µM (inactive) | > 10 µM (inactive) | > 10 µM (inactive) | > 10 µM (inactive) | > 10 µM (inactive) | > 10 µM (inactive) | > 10 µM (inactive) | > 10 µM (inactive) | > 10 µM (inactive) | > 10 µM (inactive) | > 10 µM (inactive) | > 10 µM (inactive) | > 10 µM (inactive)
COC(=O)[C@@H](NC(=O)N(Cc1ccccc1)C[C@H](CC(C)C)NC(=O)[C@@H](NC(=O)OC(C)(C)C)C(C)C)C(C)C | > 100 µM (inactive) |  | > 100 µM (inactive) | > 100 µM (inactive) | > 100 µM (inactive) | > 100 µM (inactive) | > 100 µM (inactive) | 88.1 µM (inactive) | > 100 µM (inactive) | > 100 µM (inactive) | > 100 µM (inactive) | > 100 µM (inactive) | > 100 µM (inactive) | > 100 µM (inactive) | > 100 µM (inactive) |  | > 100 µM (inactive) | > 100 µM (inactive) | > 100 µM (inactive)
CC(NC(=O)C(Cc1c[nH]cn1)NC(=O)C1CCC(=O)N1)C(N)=O (stereo not drawn) ([pGlu]-His-Ala-NH2; configuration not given here) | > 100 µM (inactive) | > 100 µM (inactive) | > 100 µM (inactive) | > 100 µM (inactive) | > 100 µM (inactive) | > 100 µM (inactive) | > 100 µM (inactive) | > 100 µM (inactive) | > 100 µM (inactive) | > 100 µM (inactive) | > 10 µM (inactive) | > 100 µM (inactive) | > 100 µM (inactive) | > 100 µM (inactive) | > 100 µM (inactive) | > 100 µM (inactive) | > 100 µM (inactive) | > 100 µM (inactive) | > 100 µM (inactive)
Cc1[nH]n(C(=N)N)c(=O)c1CCO | > 100 µM (inactive) | > 100 µM (inactive) |  | > 100 µM (inactive) | > 100 µM (inactive) | > 100 µM (inactive) | > 100 µM (inactive) | > 100 µM (inactive) | > 100 µM (inactive) | > 100 µM (inactive) | 2.76 µM (inactive) | 1.68 µM (inactive) | > 100 µM (inactive) | > 100 µM (inactive) | > 100 µM (inactive) | > 100 µM (inactive) | 17.1 µM (inactive) | > 100 µM (inactive) | > 100 µM (inactive)
O=C(CC(C(=O)c1cccs1)c1cccs1)c1ccsc1 (stereo not given) | 43.3 µM (inactive) | 37.9 µM (inactive) | 66.1 µM (inactive) | 57.4 µM (inactive) | 36.6 µM (inactive) | 73.6 µM (inactive) | 57.9 µM (inactive) | > 100 µM (inactive) | 20.2 µM (inactive) | 42.4 µM (inactive) | 32.7 µM (inactive) | 59.2 µM (inactive) |  |  | 50.1 µM (inactive) | 39.4 µM (inactive) | 37.2 µM (inactive) | > 100 µM (inactive) | 43.5 µM (inactive)
COc1ccc(CC2c3cc(OC)c(OC)c(OC)c3CC[N+]2(C)C)cc1Oc1ccc(CC2c3cc4c(c(OC)c3CC[N+]2(C)C)OCO4)cc1 (stereo not given) | 34.4 µM (inactive) | > 100 µM (inactive) | > 100 µM (inactive) | > 100 µM (inactive) | > 100 µM (inactive) |  | > 100 µM (inactive) | 80.9 µM (inactive) | > 100 µM (inactive) | > 100 µM (inactive) | > 100 µM (inactive) | > 100 µM (inactive) |  | > 100 µM (inactive) | > 100 µM (inactive) | > 100 µM (inactive) | > 100 µM (inactive) | > 100 µM (inactive) | > 100 µM (inactive)
Cc1cc(=O)oc2c(CNC(CC(C)C)C(=O)O)c(O)ccc12 (stereo not given) | > 100 µM (inactive) |  | > 100 µM (inactive) | > 100 µM (inactive) | > 100 µM (inactive) | > 100 µM (inactive) | > 100 µM (inactive) | > 100 µM (inactive) | > 100 µM (inactive) | > 100 µM (inactive) | > 100 µM (inactive) | > 100 µM (inactive) | > 100 µM (inactive) | > 100 µM (inactive) | > 100 µM (inactive) | > 100 µM (inactive) | > 100 µM (inactive) | > 100 µM (inactive) | > 100 µM (inactive)
O=c1cccccc1O [TROPOLONE] | > 100 µM (inactive) | 17.4 µM (inactive) | > 100 µM (inactive) | 79.8 µM (inactive) | 32 µM (inactive) |  | 41.8 µM (inactive) | 91.8 µM (inactive) | > 100 µM (inactive) | 26.5 µM (inactive) | 39.6 µM (inactive) | 32.9 µM (inactive) | 26.5 µM (inactive) | 93.3 µM (inactive) | > 100 µM (inactive) |  | 46.7 µM (inactive) | 83.9 µM (inactive) | 80.2 µM (inactive)
CN(C)CCN(C)c1ccc2c(=O)n(CCN(C)C)c(=O)n3c4ccccc4c(=O)c1c23 | 0.0353 µM (active) | < 0.0258 µM (active) | 1.66 µM (inactive) | 0.454 µM (active) | 0.194 µM (active) | 0.0897 µM (active) | 0.397 µM (active) | 2.12 µM (inactive) | 1.26 µM (inactive) | 0.029 µM (active) | 2.29 µM (inactive) | 0.582 µM (active) | 2.81 µM (inactive) | 0.34 µM (active) | 1.55 µM (inactive) | 0.0964 µM (active) | < 0.01 µM (active) | 1.51 µM (inactive) | 0.516 µM (active)
Cc1cc2nnc(C(N)=O)c(N)c2cc1C | > 100 µM (inactive) | > 100 µM (inactive) | > 100 µM (inactive) | > 100 µM (inactive) | > 100 µM (inactive) | 39.8 µM (inactive) | > 100 µM (inactive) | 30.5 µM (inactive) | > 100 µM (inactive) | > 100 µM (inactive) | > 100 µM (inactive) | 47.8 µM (inactive) |  | > 100 µM (inactive) | 42.1 µM (inactive) | > 100 µM (inactive) | > 100 µM (inactive) | > 100 µM (inactive) | > 100 µM (inactive)
O=C1c2ccccc2CC12Cc1cc3c(cc1C2=O)CCC3 (stereo not given) | > 100 µM (inactive) | > 100 µM (inactive) | > 100 µM (inactive) | > 100 µM (inactive) | > 100 µM (inactive) | > 100 µM (inactive) | > 100 µM (inactive) | > 100 µM (inactive) | > 100 µM (inactive) | > 100 µM (inactive) | > 100 µM (inactive) | > 100 µM (inactive) | > 100 µM (inactive) | > 100 µM (inactive) | > 100 µM (inactive) |  | > 100 µM (inactive) | > 100 µM (inactive) | > 100 µM (inactive)
COC(=O)C(NC(=O)CNC(=O)CSc1nnc(COc2ccc(Cl)cc2)n1-c1ccccc1)C(C)C (stereo not given) | 31.3 µM (inactive) | 21.7 µM (inactive) | 35.9 µM (inactive) | 18.5 µM (inactive) | 16.2 µM (inactive) | 26.5 µM (inactive) | 17.7 µM (inactive) | 22.9 µM (inactive) | 21.2 µM (inactive) | 18.8 µM (inactive) | > 100 µM (inactive) | 20.1 µM (inactive) | 18.1 µM (inactive) | 19.5 µM (inactive) |  | 18.4 µM (inactive) | 11.1 µM (inactive) | 16.9 µM (inactive) | 17.8 µM (inactive)
O=C(OC1=CCN(Br)C1=O)C1=C(O)C(=O)N(Br)C1 | 42.9 µM (inactive) | 27.1 µM (inactive) | 25.1 µM (inactive) | 53.8 µM (inactive) | 17.8 µM (inactive) | 24 µM (inactive) |  | 27 µM (inactive) | 33.1 µM (inactive) | 38.3 µM (inactive) | > 100 µM (inactive) | 31.3 µM (inactive) | 20 µM (inactive) | 26.9 µM (inactive) | 21.5 µM (inactive) | 17.3 µM (inactive) | 21.4 µM (inactive) | 33 µM (inactive) | 45.4 µM (inactive)
